Data from patent publication US20250241976A1, “ADMINISTRATION OF AN ANTICANCER PEPTIDE” (Verrica Pharmaceuticals, Inc., priority 2024, published 2025).
Where a SMILES comes first, the peptide text is derived from it. [ ]: non-standard residue; d: D form. Dip = N[C@H](C(=O)O)C(c1ccccc1)c1ccccc1

Experiments:
[1] = Storage of reconstituted Peptide A solution; type: physicochemical
Experimental: (§1) Peptide A was provided as the acetate salt, 20 mg of lyophilized powder per vial for injection. The powder was reconstituted in saline to a concentration ranging from 4-20 mg/mL based upon the target dose and volume for each subject. Peptide A was supplied in colorless glass vials (Ph. Eur. hydrolytic class I) fitted with rubber stopper (Ph. Eur. type I).
Peptide A vials (20 mg/vial) were stored at 2-8° C. (36-46° F.) or −20±5° C. (−13 to 5° F.) protected from light at the study site, separated from other drugs. The reconstituted Peptide A solution can be stored for up to 12 hours in a refrigerator at 2-8° C. (36-46° F.). Syringes with Peptide A drawn from the vial can be stored for up to 4 hours at 20-25° C. (68-77° F.) protected from light. Any unused portion was discarded.

[2] = tested on: basal cell carcinoma (BCC) lesion; assay: Clinical study: intradermal injection of Peptide A into basal cell carcinoma lesions, with TRAEs, withdrawals and necrosis recorded; type: in vivo, human
Experimental: This study involved human adults ≥18 years of age with clinically suspected BCC with at least 1 (and up to 5) eligible lesion(s) suitable for biopsy and excision. The size of the lesion(s) were ≥0.5 cm and ≤2 cm in longest diameter prior to punch biopsy or ≥1 cm and ≤2 cm in longest diameter prior to shave biopsy. Histological diagnosis of nodular, micronodular, or superficial BCC, as confirmed by punch or shave biopsy, was performed within 90 days of treatment.
as §1
Peptide A (acetate salt) was administered via intradermal injection into a single target lesion (between ≥0.5 cm and ≤2 cm in longest diameter) using the 1-mL syringe and 30-gauge 0.5-inch needle. The subjects were positioned in a way so that the target lesion lies flat, to avoid any dependent areas that may be susceptible to leakage of the pharmaceutical composition. Subsequent injections for the same lesion were given in remaining nonnecrotic areas of the lesion, as assessed prior to treatment. […]
Cohort 2 was assigned a regimen of 8 mg of Peptide A for each treatment day (with no partitioned administration on any day).
[…] The total 500 μL (8 mg) dosage volume is divided into 2 injections given at least 15 minutes and no more than 30 minutes apart, with 30% (150 μL) administered in the first injection and the remaining 70% (350 μL) with the second injection.
A radial administration method was also used for Cohorts 4 and 5. The formulation with Peptide A is injected intradermally for all injections and subcutaneous injection should be avoided. It is important to ensure adequate and even distribution of Peptide A across the entire base of the lesion. To accomplish adequate and even distribution of Peptide A across the entire lesion: The first 150 μL is injected as centrally as possible such that Peptide A can distribute radially outward; and the second (350 μL) portion is injected in a clockface fashion (i.e., at 12, 3, 6, 9 o'clock as shown in FIG. 1) as needed to ensure uniform distribution into the periphery of the lesion. The needle is inserted at a 10- to 20-degree angle for a flat lesion, or at an increased angle (i.e., greater than 20-degree) for a raised lesion.

## NCCCC[C@H](NC(=O)[C@@H](NC(=O)[C@H](Cc1c[nH]c2ccccc12)NC(=O)[C@H](CCCCN)NC(=O)[C@H](CCCCN)NC(=O)[C@H](Cc1c[nH]c2ccccc12)NC(=O)[C@H](Cc1c[nH]c2ccccc12)NC(=O)[C@H](CCCCN)NC(=O)[C@@H](N)CCCCN)C(c1ccccc1)c1ccccc1)C(N)=O [Peptide A, KKWWKKWDipK-NH2] (H-KKWWKKW[Dip]K-NH2)
[1]; 20-25° C., protected from light
  Storage time of syringes with Peptide A drawn from the vial: up to 4 hours
[1]; reconstituted in saline, refrigerator at 2-8° C.
  Storage time of reconstituted Peptide A solution: up to 12 hours
[2]; Cohorts 1 and 2, 4 mg then 8 mg or 8 mg daily, no partitioned administration
  Subjects experiencing TRAEs of burning and pain at the injection site: Several subjects
[2]; Cohorts 1 and 2, no partitioned administration
  Subjects withdrawn from treatment due to TRAEs: Two subjects withdrew
[2]; Cohorts 4 and 5, partitioned (30%/70%, 15-30 min apart) and radial administration, 8 mg in 500 μL
  Change in TRAEs: marked decrease
[2]; Cohorts 4 and 5 and expansion cohorts (10, 10, 26, 27 subjects enrolled), partitioned and radial administration, 8 mg
  Withdrawal from study treatment due to TRAEs of burning or pain at the injection site: No subjects have withdrawn from study
[2]; Subject 3, Cohort 1, W1D2, no partitioned administration, subject withdrawn from treatment
  Treatment status after TRAE: Discontinued
[2]; Subject 5, Cohort 1, W1D3 after 4 mg W1D1 and 8 mg W1D2, no partitioned administration, no injection given
  Lesion necrosis status: Complete
[2]; Subject 8, Cohort 2, 8 mg on W1D1, no partitioned administration
  TRAEs (pain severity): experiencing moderate
[2]; Subject 8, Cohort 2, 8 mg, no partitioned administration
  Duration of pain post-treatment: about 3-4 hours post-
[2]; Subject 8, Cohort 2, W1D2, no partitioned administration, subject withdrew from treatment
  Treatment status after TRAE: Discontinued
[2]; Subject 9, Cohort 2, after the W1D2 treatment (8 mg), no partitioned administration, subject continued treatment
  TRAEs reported: injection-site burning
